The structures appear in SMILES notation.

This data set can be described thus: gradient 5% acetonitrile 3 min, to 50% in 2 min, to 85% in 15 min, held 3 min, 100 µL/min. The following applies: column: Zorbax Extend-C18 2.1 x 50 mm; eluents: water / acetonitrile, 0.1% formic acid. The method in brief:
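Over 3 months, pure standards in mixtures of ~100 molecules were run by HPLC coupled to a quadrupole time-of-flight mass spectrometer in positive and negative ionization mode. The column was a Zorbax Extend-C18 (2.1 × 50 mm, 1.8 μm) at 100 μL/min, eluted with water and acetonitrile each holding 0.1% formic acid, with 40 μL dead and 900 μL dwell volumes. Retention time was determined from adduct peaks chosen by software and checked manually.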
The compound `CCn1c(=O)c(N2CCCC(C(=O)NCCc3c[nH]c4ccc(Cl)cc34)C2)nc2ccccc21` (centres undefined) registered an RP-LC retention time of 1010 s. For `CCC(=O)N1CCc2nc(N3CCN(C(=O)CCOC)CC3)sc2C1`, the RP-LC retention time is 875 s. Under `Cc1nc(C)c(-c2ccc(=O)n(CCNC(=O)Cn3cnc4ccccc43)n2)s1` stands 552 s; under `Cc1ccc(C)c(N2CCN(S(=O)(=O)c3cc(-c4csc(C)n4)sc3C)CC2)c1`, 1360 s. On to `C=C1C(=O)C2=CC1CCC(=O)C1(C)CCC(OC(C)=O)C(C)(C)C1CC2O` (centres undefined), for which the RP-LC retention time is 718 s. The same measure for `CCNc1nccc(N2CCC(CC(=O)NCc3ccc(OC)c(OC)c3)CC2)n1`: 614 s; for `CCOC(=O)COc1cc(-c2ccc(F)cc2)nc2ccc(NC(=O)C3CCC3)cc12`: 810 s; for `Cc1oc2ccn(Cc3ccccc3F)c(=O)c2c1C(=O)NC1CCCCC1`: 1160 s. Under `O=C(NC1CCN(c2ccc(=O)[nH]n2)C1)c1ccc(F)c(Cl)c1` (centres undefined) stands 648 s; under `Cc1c(S(=O)(=O)CCNC(=O)NCc2ccc(F)cc2)c2ccccc2n1C`, 737 s. For `c1ccc(-c2noc(-c3ccccc3OC3CNC3)n2)cc1`, the RP-LC retention time worked out at 679 s. As for `CCOC(=O)CCC(=O)NCC1CN(c2ccc(Cl)c(Cl)c2)C(=O)O1` (centres undefined), the RP-LC retention time worked out at 774 s.

On to `CC1=C(c2ccc(C)cc2)S(=O)(=O)N=C1N1CCCN(C(=O)CC(C)C)CC1`, for which the RP-LC retention time was 855 s. Regarding `CCCN1CCN(C(=O)C(C)C2CCN(S(=O)(=O)c3ccc(Br)s3)CC2)CC1` (centres undefined), the RP-LC retention time was 689 s.

As to `CCOc1ccc(-c2noc(Cc3nc(-c4ccccc4)cs3)n2)cc1`, the RP-LC retention time was determined as 1240 s.

In the case of `COc1ccc(OC)c(S(=O)(=O)NC2CCCN(c3ccc(=O)n(C)n3)C2)c1` (centres undefined), the RP-LC retention time came to 702 s. The same measure for `CCOC(=O)CCNC(=O)N1CCc2cc(-c3ccc(C(=O)N4CCOCC4)cc3)ccc21`: 724 s; for `CC(=O)N1CCCN(C2=NS(=O)(=O)C(c3ccc(F)cc3)=C2C)CC1`: 690 s; for `CN1C(=O)CSc2cnn(CC(=O)N3CCCc4ccccc43)c(=O)c21`: 726 s. The same measure for `O=C(c1cccc(Br)c1)N1CCC2(C1)C(=O)Nc1ccccc12` (centres undefined): 773 s; for `Cc1cc(C)cc(NC(=O)C2CCCN(c3ccc4cc(S(=O)(=O)N5CCCC5)ccc4n3)C2)c1` (centres undefined): 835 s.

As for `Cn1nc(-c2nc(-c3cccc(F)c3)no2)c2c1CCN(C(=O)C1CCCO1)C2` (centres undefined), the RP-LC retention time turned out to be 789 s. `O=C(NC1CC1)C1CCCN(C(=O)c2ccc(F)cc2)C1` (centres undefined) gave an RP-LC retention time of 629 s. The same measure for `O=C(CCn1cnc2cc(-c3noc(/C=C/c4ccccc4)n3)ccc21)N1CCCC1`: 792 s; for `CCOc1ccc(N2CC(C)Cn3c2nc2c3c(=O)n(C)c(=O)n2C)cc1` (centres undefined): 831 s. The same measure for `COc1ccc(S(=O)(=O)Nc2ccc3oc(-c4ccccc4OC)cc(=O)c3c2)cc1`: 686 s; for `CC(C)NC(=O)Nc1ccccc1NC(=O)c1cccnc1`: 591 s. Compound `COc1ccccc1N1CCN(c2nccc(-n3nc(C)cc3C)n2)CC1` came in with an RP-LC retention time of 1010 s. The same measure for `C#CCOCC1CCN(C(=O)CSC2CCCC2)CC1`: 852 s; for `CCOC(=O)C1=C[C@]2(CC)CCCN3CCc4c(n1c1ccccc41)[C@@H]32`: 777 s; for `COc1ccc2c(c1)C1(CCN(C(=O)COc3ccccc3)C1)C(=O)N2` (centres undefined): 733 s. The same measure for `CC1CCCN(CCCNC(=O)CN2C(=O)CCn3nc(-c4cn(C)c5ccccc45)cc32)C1` (centres undefined): 635 s. Under `COc1ccc(NC(=O)c2c(O)c3cccnc3n(-c3ccc(F)cc3)c2=O)cc1` stands 1250 s; under `Cc1cc(C(=O)N(CCc2cccs2)Cc2cccnc2)c(C)o1`, 619 s. The compound `CCNS(=O)(=O)c1cccnc1Nc1cc(C)cc(C)c1` showed an RP-LC retention time of 1060 s. In turn, `CC(C)CC(=O)NCC(c1ccccc1Cl)c1c[nH]c2ccccc12` (centres undefined) came in with an RP-LC retention time of 984 s. Take `Cc1nn(-c2ccccc2)c2c1N(CC(=O)N1CCN(c3ccc(F)cc3)CC1)C(=O)CS2`: the RP-LC retention time came out at 915 s. As to `CC(NC(=O)Cn1cc(C(=O)C(=O)N2CCOCC2)c2ccccc21)c1ccc2c(c1)OCCCO2` (centres undefined), the RP-LC retention time amounted to 787 s. Take `O=C(c1cccnc1)N1CCCCC1c1nncn1Cc1ccccc1` (centres undefined): the RP-LC retention time stood at 620 s. The compound `CC(C)NC(=O)N1CCCC(c2cccc(C(=O)NCc3cccc(C(F)(F)F)c3)c2)C1` (centres undefined) yielded an RP-LC retention time of 958 s. In turn, `CCOC(=O)c1noc2ncnc(N3CCN(c4ccccc4F)CC3)c12` gave an RP-LC retention time of 1070 s. Under `CCc1csc(-c2ccc(S(=O)(=O)NC(CC)c3cccs3)s2)n1` (centres undefined) stands 1150 s. The same measure for `CC(C)CCNC(=O)CN1C(=O)CC(c2cccs2)=Nc2ccccc21`: 888 s; for `Cn1c(=O)c2cc(C(=O)N3CCN(c4ccc(F)cc4)CC3)sc2n(C)c1=O`: 796 s; for `CC(C)N1CCN(C(=O)C2CCN(c3nc4ccc(-c5ccccc5)nc4s3)CC2)CC1`: 696 s. For `Cc1ccc(CN2C[C@@H](CO)[C@H](c3ccccn3)C2)nc1`, the RP-LC retention time was 559 s. For the compound `O=C(NCCn1nc(-c2cccs2)ccc1=O)c1ccc(-n2cccn2)nn1`, the RP-LC retention time was 685 s.

In turn, `CCOC(=O)Cn1c(C2CC(=O)N(c3ccccc3F)C2)nc2ccccc21` (centres undefined) came in with an RP-LC retention time of 746 s. The same measure for `Cc1cnc(C(=O)N[C@@H]2CCC[C@@H]2C(=O)NCc2ccc3c(c2)OCO3)cn1`: 662 s; for `CC1=C(c2ccc(C)cc2)S(=O)(=O)N=C1N1CCCN(C(=O)c2ccsc2)CC1`: 821 s. Under `O=C(Nc1ccc2c(c1)OCCO2)c1coc(NC(=O)C2CC2)n1` stands 643 s; under `COc1cc(NC(=O)Cn2nc3c4ccc(F)cc4ncn3c2=O)cc(OC)c1`, 715 s; under `COc1cccc(Cn2c(=O)c3cnc(-c4ccc(C)cc4)nc3n(C)c2=O)c1`, 1250 s. In the case of `CCn1cc(CCNC(=O)c2cc(F)ccc2Cl)c2cccnc21`, the RP-LC retention time was determined as 729 s. Under `O=C(Cc1cccc(F)c1)N1CCc2cc(-c3ccno3)ccc21` stands 948 s; under `O=S(=O)(Cc1cccc(Cl)c1)NCC(c1ccc(F)cc1)N1CCOCC1` (centres undefined), 609 s; under `O=C(Nc1ccccc1F)N1CCCC1c1nc(-c2cccc(Cl)c2)no1` (centres undefined), 1060 s. The same measure for `COc1ccc(Cl)cc1NS(=O)(=O)c1ccc2c(c1)CCCC(=O)N2`: 765 s. Under `CCOC(=O)c1ccccc1NC(=O)Cn1c(=O)n(CC)c(=O)c2c1cc(C)n2C` stands 978 s.

These data come from the METLIN SMRT retention time set (Domingo-Almenara et al. 2019).
